These results are taken from US5338550A, “Stereoisomer therapy” (priority 1992, dated 1994).

A short description of one data set: Crystal lattice energy. It counts as physicochemical.
A short description of data set [1]: Density (bulk, tapped, tablet). It counts as physicochemical. Here is the method:
Next, the granulations are fed to a Manesty layer press fitted with two hoppers, one hopper is filled with the slow-layer granulation, the other hopper is filled with the fast-layer granulation. A bilayer tablet dosage form is then compressed by first forming a 690 mg second layer, then a 230 mg first layer is pressed in release retaining relation to the second layer. The first layer and second layers are pressed together under a pressure head of two tons. This manufacturing process produces the bilayer dosage form. […] The final composition of the second layer comprises 58 wt % racemic (±) ibuprofen, 15 wt % hydroxypropylmethylcellulose having a 242,000 molecular weight, 25 wt % hydroxypropylmethylcellulose having a 9,200 molecular weight and 2 wt % stearic acid.

Converted amounts (≈) assume the structure as drawn.

By solubility is commonly meant the concentration that dissolves in the medium under given conditions. A higher solubility goes with much dissolved substance. In the case of `CC(C)Cc1ccc(C(C)C(=O)O)cc1` (racemic) [racemic ibuprofen], the crystal lattice energy in the data set “Crystal lattice energy” came out at 117 joules/g. In “physchem” (artificial gastric juice), this compound yielded a solubility of 79 µg/mL (≈ 383 µM). In addition, the solubility in “physchem” (artificial intestinal juice) turned out to be 5910 µg/mL (≈ 28600 µM). Moreover, the solubility in the data set “physchem” (water) is 82 µg/mL (≈ 398 µM). In data set [1], this compound came in with a bulk density of 0.328 g/cc, a tablet density of 1.052 g/cc and a tapped density of 0.483 g/cc.
Compound `CC(C)Cc1ccc([C@H](C)C(=O)O)cc1` [S(+) ibuprofen] showed a crystal lattice energy in “Crystal lattice energy” of 90.3 joules/g. In “physchem” (artificial gastric juice), this compound returned a solubility of 131 µg/mL (≈ 635 µM). This compound also had a solubility in the data set “physchem” (artificial intestinal juice) of 6980 µg/mL (≈ 33800 µM). The concentration in solution in “physchem” (water) (solubility) was 134 µg/mL (≈ 650 µM). Moreover, in data set [1], the bulk density was 0.277 g/cc, the tablet density came out at 1.038 g/cc and the tapped density was 0.391 g/cc.
